Assay results reported in ChEMBL document CHEMBL1201862, “PubChem BioAssay data set” (2004).
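The compound was tested at five concentrations on cells cultured in 96-well plates, with a 48-hour exposure period. GI50 marks 50% less growth.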 The source made the active and inactive calls. Rule as the data show it: active = GI50 up to about 1.1 µM and inactive = higher. Non-standard residues stand in square brackets, D forms with d. Residues, ends and D or L forms follow the SMILES beside them. ξ: configuration not given here. *: point of attachment. NMeF = CN[C@@H](Cc1ccccc1)C(=O)O; NMeN = CN[C@@H](CC(N)=O)C(=O)O; NMeV = CN[C@H](C(=O)O)C(C)C; ξNMeV = CNC(C(=O)O)C(C)C; Boc = CC(C)(C)OC(=O)*; ξNMeA = CNC(C)C(=O)O; ξV = CC(C)C(N)C(=O)O

Columns and labels:
Assay in all cases: NCI anticancer screen, dose series, 48 h
[1] = test system: SF-539
[2] = test system: Hs-578T
[3] = test system: A549
[4] = test system: OVCAR-8
[5] = test system: MDA-MB-435
[6] = test system: UACC-257
[7] = test system: T47D
[8] = test system: K562
[9] = test system: TK-10
[10] = test system: ACHN
[11] = test system: LXFL 529
[12] = test system: SNB-75
[13] = test system: A498
[14] = test system: SR
[15] = test system: IGROV-1
[16] = test system: 786-0
[17] = test system: MDA-MB-231
[18] = test system: SNB-78
[19] = test system: UACC-62
[20] = test system: CCRF-CEM

SMILES | GI50 [1] | GI50 [2] | GI50 [3] | GI50 [4] | GI50 [5] | GI50 [6] | GI50 [7] | GI50 [8] | GI50 [9] | GI50 [10] | GI50 [11] | GI50 [12] | GI50 [13] | GI50 [14] | GI50 [15] | GI50 [16] | GI50 [17] | GI50 [18] | GI50 [19] | GI50 [20]
COC(=O)C(C)N(C)C(=O)[C@H](CC(N)=O)N(C)C(=O)[C@@H]1CCCN1C(=O)[C@H](C(C)C)N(C)C(=O)C(C(C)C)N(C)C(=O)[C@H](Cc1ccccc1)N(C)C(=O)C(NC(=O)OC(C)(C)C)C(C)C (some centres undefined) (Boc-[ξV][NMeF][ξNMeV][NMeV]P[NMeN][ξNMeA]-OMe) | 28 µM (inactive) | 10.8 µM (inactive) | > 50 µM (inactive) | 17.5 µM (inactive) | 23.2 µM (inactive) | 25.6 µM (inactive) | 19.5 µM (inactive) | 16.9 µM (inactive) | 21.2 µM (inactive) | > 50 µM (inactive) | 3.13 µM (inactive) | 6.17 µM (inactive) | 44.4 µM (inactive) | 5.15 µM (inactive) | 22.4 µM (inactive) | 17.6 µM (inactive) | 16.3 µM (inactive) | 17.9 µM (inactive) | 10.2 µM (inactive) | 24 µM (inactive)
Cc1cc(NC(=O)NC(=O)c2ccccc2[N+](=O)[O-])ccc1Oc1ncc(Cl)cn1 | 0.0883 µM (active) | 0.0257 µM (active) | 0.125 µM (active) | 0.303 µM (active) | 0.0115 µM (active) | 0.0431 µM (active) | 34.1 µM (inactive) | 0.037 µM (active) | 19.8 µM (inactive) | 1.88 µM (inactive) | 0.0773 µM (active) | 0.0456 µM (active) | 0.0604 µM (active) | – | 0.51 µM (active) | 0.0671 µM (active) | 0.664 µM (active) | 0.0964 µM (active) | 0.0551 µM (active) | 0.0552 µM (active)
